Where a name gives a salt, the structure may show the parent alone. Read-outs that look alike come from different tables or passages of the source.
Test system: C57BL/KsJ-db/db mice
Assay: blood sugar and triglycerides lowering in db/db mice, oral gavage daily for 6 days
Format: in vivo
Details: for inhibition in vivo at 100 mg/kg/day / inhibition in vivo at 30 mg/kg/day / inhibition in vivo at 10 mg/kg/day: Mus musculus, 144 h, 6 days treated; for inhibition in vivo at 100 mg/kg/day: dose 100 mg/kg/day oral gavage; for inhibition in vivo at 30 mg/kg/day: dose 30 mg/kg/day oral gavage; for inhibition in vivo at 10 mg/kg/day: dose 10 mg/kg/day oral gavage
Excerpt: Mutation in colonies of laboratory animals and different sensitivities to dietary regimens have made the development of animal models with non-insulin dependent diabetes associated with obesity and insulin resistance possible. Genetic models such as db/db and ob/ob (See Diabetes, (1982) 31(1): 1-6) in mice and fa/fa and zucker rats have been developed by the various laboratories for understanding the pathophysiology of disease and testing the efficacy of new antidiabetic compounds (Diabetes, (1983) 32: 830-838; Annu. Rep. Sankyo Res. Lab. (1994) 46: 1-57). The homozygous animals, C57 BL/KsJ-db/db mice developed by Jackson Laboratory, US, are obese, hyperglycemic, hyperinsulinemic and insulin resistant (J. Clin. Invest., (1990) 85: 962-967), whereas heterozygous are lean and normoglycemic. In db/db model, mouse progressively develops insulinopenia with age, a feature commonly observed in late stages of human type II diabetes when blood sugar levels are insufficiently controlled. The state of pancreas and its course vary according to the models. Since this model resembles that of type II diabetes mellitus, the compounds of the present invention were tested for blood sugar and triglycerides lowering activities.
Male C57BL/KsJ-db/db mice of 8 to 14 weeks age, having body weight range of 35 to 60 grams, procured from the Jackson Laboraotory, USA, were used in the experiment. The mice were provided with standard feed (National Institute of Nutrition, Hyderabad, India) and acidified water, ad libitum. The animals having more than 300 mg/dl blood sugar were used for testing. The number of animals in each group was 4.
The random blood sugar and triglyceride levels were measured by collecting blood (100 μl) through orbital sinus, using heparinised capillary in tubes containing EDTA which was centrifuged to obtain plasma. The plasma glucose and triglycerides levels were measured spectrometrically, by glucose oxidase and glycerol-3-PO4 oxidase/peroxidase enzyme (Dr. Reddy's Lab. Diagnostic Division Kits, Hyderabad, India) methods respectively. On 6th day the blood samples were collected one hour after administration of test compounds/vehicle for assessing the biological activity.
Test compounds were suspended on 0.25% carboxymethyl cellulose and administered to test group at a dose of 10 mg to 100 mg/kg through oral gavage daily for 6 days. The control group received vehicle (dose 10 ml/kg).
The blood sugar and triglycerides lowering activities of the test compound was calculated according to the formula: [formula]

[1] = read-out: Maximum reduction in blood glucose level (%)
[2] = read-out: Triglyceride lowering (%)

| SMILES | inhibition in vivo at 100 mg/kg/day [1] | inhibition in vivo at 100 mg/kg/day [2] | inhibition in vivo at 30 mg/kg/day [1] | inhibition in vivo at 30 mg/kg/day [2] | further results |
| --- | --- | --- | --- | --- | --- |
| CCc1nc(C)cc(=O)n1CCOc1ccc(/C=C2\SC(=O)NC2=O)cc1 [Example 3, 5-[4-[2-[2-Ethyl-4-methyl-6-oxo-1,6-dihydro-1-pyrimidinyl]ethoxy]phenylmethylene]thiazolidine-2,4-dione] | 67% | 12% |  |  |  |
| CCc1c(C)nc(CC)n(CCOc2ccc(/C=C3\SC(=O)NC3=O)cc2)c1=O [Example 6, 5-[4-[2-[2,Diethyl-4-methyl-6-oxo-1,6-dihydro-1-pyrimidinyl]ethoxy]phenylmethylene]thiazolidine-2,4-dione] | 41% | 31% |  |  |  |
| CCc1nc(-c2ccccc2)cc(=O)n1CCOc1ccc(/C=C2\SC(=O)NC2=O)cc1 [Example 7, 5-[4-[2-[2-Ethyl-4phenyl-6-oxo-1,6-dihydro-1-pyrimidinyl]ethoxy]phenylmethylene]thiazolidine-2,4-dione] | 66% | 35% |  |  |  |
| Cc1nc2ccccc2c(=O)n1CCOc1ccc(/C=C2\SC(=O)NC2=O)cc1 [Example 9, 5-[4-[2-[2-Methyl-4-oxo-3,4-dihydro-3-quinazolinyl]ethoxy]phenylmethylene]thiazolidine-2,4-dione] |  |  | 46% | 35% |  |
| Cc1nc2ncccc2c(=O)n1CCOc1ccc(/C=C2\SC(=O)NC2=O)cc1 [Example 11, 5-[4-[2-[8-Aza-2-methyl-4-oxo-3,4-dihydro-3-quinazolinyl]ethoxy]phenylmethylene]thiazolidine-2,4-dione] |  |  | 32% | 42% |  |
| Cn1c(COc2ccc(/C=C3\SC(=O)NC3=O)cc2)nc2ccccc2c1=O [Example 12, 5-[4-[[3-Methyl-4-oxo-3,4-dihydro-2-quinazolinyl]methoxy]phenylmethylene]thiazolidine-2,4-dione] | 71% | 57% |  |  |  |
| CCn1c(COc2ccc(/C=C3\SC(=O)NC3=O)cc2)nc2ccccc2c1=O [Example 13, 5-[4-[[3-Ethyl-4-oxo-3,4-dihydro-2-quinazolinyl]methoxy]phenylmethylene]thiazolidine-2,4-dione] | 52% | 57% |  |  |  |
| CCCc1nc(C)cc(=O)n1CCOc1ccc(CC2SC(=O)NC2=O)cc1 (stereo not drawn) [Example 17, 5-[4-[2-[4-methyl-2-Propyl-6-oxo-1,6-dihydro-1-pyrimidinyl]ethoxy]phenylmethyl]thiazolidine-2,4-dione] |  |  | 65% | 45% |  |
| CCc1nc(C)cc(=O)n1CCOc1ccc(CC2SC(=O)NC2=O)cc1 (stereo not drawn) [Example 19, 5-[4-[2-[2-Ethyl-4-methyl-6-oxo-1,6-dihydro-1-pyrimidinyl]ethoxy]phenylmethyl]thiazolidine-2,4-dione] |  |  | 73% | 70% |  |
| CCc1nc(-c2ccccc2)cc(=O)n1CCOc1ccc(CC2SC(=O)NC2=O)cc1 (stereo not drawn) [Example 21, 5-[4-[2-[2-Ethyl-4phenyl-6-oxo-1,6-dihydro-1-pyrimidinyl]ethoxy]phenylmethyl]thiazolidine-2,4-dione] |  |  | 64% | 76% |  |
| Cn1c(COc2ccc(CC3SC(=O)NC3=O)cc2)nc2ccccc2c1=O (stereo not drawn) [Example 22, 5-[4-[[3-Methyl-4-oxo-3,4-dihydro-2-quinazolinyl]methoxy]phenylmethyl]thiazolidine-2,4-dione] |  |  | 55% | 41% |  |
| CCc1nc2ccccc2c(=O)n1CCOc1ccc(CC2SC(=O)NC2=O)cc1 (stereo not drawn) [Example 24, 5-[4-[2-[2-Ethyl-4-oxo-3,4-dihydro-3-quinazolinyl]ethoxy]phenylmethyl]thiazolidine-2,4-dione] |  |  |  |  | inhibition in vivo at 10 mg/kg/day [1]: 63%; inhibition in vivo at 10 mg/kg/day [2]: 17% |
| Cn1c(COc2ccc(CC3SC(=O)NC3=O)cc2)nc2ccccc2c1=O (stereo not drawn) [Example 28, 5-[4-[[3-Methyl-4oxo-3,4-dihydro-2-quinazolinyl]methoxy]phenylmethyl]thiazolidine-2,4-dione sodium salt] |  |  |  |  | inhibition in vivo at 10 mg/kg/day [1]: 63%; inhibition in vivo at 10 mg/kg/day [2]: 57% |
| Cc1c(C)c2c(c(C)c1O)CCC(C)(COc1ccc(CC3SC(=O)NC3=O)cc1)O2 (stereo not drawn) [Troglitazone, reference compound] |  |  |  |  | reduction in random blood sugar level (100 mg/kg daily dose, on 6th day): 28% |

From patent US6780992B2, “Heterocyclic compounds, process for their preparation and pharmaceutical compositions containing them and their use in the treatment of diabetes and related diseases” (Dr. Reddy's Laboratories Ltd., priority 1996, dated 2004)
